Measured values: patent US11229714B2, “Electrochemical reduction or prevention of infections” (WASHINGTON STATE UNIVERSITY, priority 2015, dated 2022)

Key:
[1] = system: Acinetobacter baumannii biofilms; test: In vitro A. baumannii biofilm viable cell count (CFU, drop-plate); format: cell-based
Method: Acinetobacter baumannii biofilms were used to test efficacy of the e-scaffold. An overnight culture of Acinetobacter baumannii (ATCC #BAA-1605) was grown in full-strength Luria Broth (LB) medium (Sigma-Aldrich, catalog #L3522) and was re-suspended in 5% LB medium (OD600≈0.5). […] After 2 hours of initial attachment, the bacterial suspension was removed and the biofilms were washed twice to remove planktonic cells and then refreshed with 5% LB medium. Biofilms were allowed to develop for 24 hours. Before the e-scaffolds were applied, the bulk liquid was refreshed.
E-scaffolds were sterilized by autoclaving (121° C., 15 min) and were saturated with sterilized liquid medium before being applied to existing Acinetobacter baumannii biofilms. The scaffolds were then polarized at −600 mVAg/AgCl for 24 hours, after which biofilms were processed for the quantification of viable cells by scraping the e-scaffold and biofilms from the glass surfaces of the petri dish into 5 ml of LB medium (1 g/L). The suspensions were centrifuged, and the resulting cell pellet was re-suspended in 1 ml of LB medium (1 g/L), and serial dilutions were prepared. Colony-forming units (“CFU”) were counted using a drop-plate count method. […]
To test whether H2O2 can remove biofilms in vitro and from infected porcine explants, exogenous H2O2 (VWR, Catalog #RC3819-16, adjusted to a concentration similar to that produced by the e-scaffold) was added to Acinetobacter baumannii biofilms. […] First, the biofilms were exposed to the total calculated amount of H2O2 in a single administration. […]
Catalase (Sigma-Aldrich, catalog #C1345) was added to an Acinetobacter baumannii biofilm and measured protection against H2O2 produced by the e-scaffold. Prior to addition, the H2O2 decomposition rate per unit of catalase was determined from H2O2 microelectrode measurements. The total amount of catalase required per min for complete decomposition of H2O2 was calculated based on the rate of H2O2 generation by the e-scaffold. To ensure complete H2O2 decomposition, catalase was added in excess of the calculated value (5×=0.05 mg/ml). […]

[2] = system: P. aeruginosa PAO1 biofilm cells; test: SEM imaging of biofilm cells; format: cell-based, Pseudomonas aeruginosa; settings: 24 h treatment
Method: For SEM imaging, biofilms were grown for 24 hours on UV-sterilized, 0.22 μm type GV membrane filters placed in sterile 6-well plates. Exogenous H2O2 was added continuously at an average 0.008 mmol/h for 24 hours to mimic the e-scaffold generated H2O2 treatment. After treatment for 24 hours, both e-scaffolds and membrane filters with biofilms were aseptically collected from the untreated, e-scaffold treated, and exogenous H2O2 treated wells. The membrane filters and e-scaffolds were fixed overnight with 2.5% glutaraldehyde and 2% paraformaldehyde in 0.1 M phosphate buffer, followed by rinsing with 0.1 M phosphate buffer. The membranes and e-scaffolds were then dehydrated gradually by being washed sequentially with 10%, 30%, 50%, 70%, and 95% alcohol (10 min each) and 100% alcohol (3×10 min each). Samples were then sputter-coated with gold prior to field emission in-lens scanning electron microscopy imaging.

[3] = system: P. aeruginosa PAO1 biofilm cells; test: Intracellular hydroxyl free radical formation (HPF fluorescence); format: cell-based, Pseudomonas aeruginosa; settings: treated vs untreated biofilm cells
Method: Intracellular hydroxyl free radical (OH•) formation was detected using 5 μM of a fluorescent reporter dye, 3′-(p-hydroxyphenyl fluorescein) (HPF). […] The samples were centrifuged (10,000×g for 10 min), and then the medium was replaced with a final concentration of 5 μM HPF prepared in 500 μL of 0.1 M PBS. After staining in the dark at room temperature for 15 minutes, samples were centrifuged at 10,000×g for 10 min. Supernatant was removed, and cells were rinsed and re-suspended with PBS. An aliquot (100 μL) was added to each well in a 96-well plate, and fluorescence intensity was quantified using a microplate reader with excitation at 490 and emission at 515 nm. For the OH• formation assays, fluorescence was estimated as ((Fluorescence with dye− Fluorescence without dye)/(Fluorescence without dye))*(100).

[4] = system: P. aeruginosa PAO1 planktonic culture; test: Dose-dependent killing curve for ciprofloxacin, stationary phase planktonic culture; format: cell-based, Pseudomonas aeruginosa; settings: 0-200 μg/ml, 200× of MIC
Method: (§1) To identify and isolate P. aeruginosa PAO1 persister cells, planktonic culture was grown to the stationary phase and the dose-dependent killing curve for ciprofloxacin (0-200 μg/ml) was investigated. […] Assessments were then performed on biofilms regrown from cells recovered after no treatment (“untreated biofilms”), cells recovered after e-scaffold treatment (“e-scaffold treated biofilm”), and “persister cells” that were isolated from biofilms treated with 200 μg/ml ciprofloxacin for 3.5 hours. The treated samples were washed with 0.9% NaCl and suspended in LB to isolate persister cells from ciprofloxacin-treated biofilms for subsequent experiments as described in more detail below.

[5] = system: P. aeruginosa PAO1 persister cells; test: Treatment of persister cells isolated from ciprofloxacin-treated biofilms (CFU); format: cell-based, Pseudomonas aeruginosa
Method: as §1
The total number of viable cells was determined for ciprofloxacin-treated and untreated biofilms using the modified drop-plate cell counting method. Remaining persister cells were then exposed to either 200 μg/ml ciprofloxacin or e-scaffold treatment for 6 hours. Final CFU values were then determined.

[6] = system: P. aeruginosa PAO1 biofilms; test: Tobramycin susceptibility of P. aeruginosa PAO1 biofilms with or without e-scaffold (CFU); format: cell-based, Pseudomonas aeruginosa; settings: biofilms regrown from persister cells, 10 μg/ml tobramycin, no e-scaffold
Method: For the following experiments, 20 g/L (1×) Luria broth (LB) medium (Sigma-Aldrich, catalog #L3522) was used to grow P. aeruginosa PAO1 cultures overnight, and 1 g/L (0.05×) LB was used as the growth medium for biofilms. Tobramycin (Sigma Aldrich, catalog #T4014) and ciprofloxacin (Sigma Aldrich, catalog #17850) solutions were diluted in 1 g/L (0.05×) LB for antibiotic susceptibility experiments and persister cell isolation, respectively. Minimum inhibitory concentrations (MICs) were determined for both antibiotics following the Clinical and Laboratory Standards Institute (CLSI) protocol. Other compounds used include 3′-p-hydroxyphenyl fluorescein dye (Invitrogen, catalog #H36004), propidium iodide (Invitrogen, catalog #L-7012), thiourea (AK Scientific, Inc., catalog #S726), and H2O2 (VWR, Catalog #RC3819-16).
Frozen stocks of P. aeruginosa PAO1 were cultured overnight in LB at 37° C. on a rotating table. For biofilm experiments, overnight culture was adjusted to OD600≈0.5 in LB and used as an inoculum. 2 ml of culture was used to inoculate sterile glass bottom petri dishes and allowed to form biofilms for 24 hours. Such one day-old biofilms were treated with e-scaffolds for 24 hours. Untreated and e-scaffold treated biofilm cells were then washed twice to remove loosely attached cells. Remaining cells were recovered for antibiotic susceptibility testing. […]

[7] = system: P. aeruginosa PAO1 biofilms; settings: general statement, no e-scaffold; cited from earlier work

## OO [H2O2, hydrogen peroxide]
[1]; 45 mM H2O2 in a single administration, vs control without H2O2
  reduction in Acinetobacter baumannii CFU: ~3 log
[1]; equivalent concentration of H2O2 delivered continuously over 24 hours
  reduction in bacterial counts: ~2 log
[2]
  cell morphology in SEM images: membrane-compromised cells
[3]
  HPF fluorescence (OH• formation): increased fluorescence

## O=C(O)c1cn(C2CC2)c2cc(N3CCNCC3)c(F)cc2c1=O [ciprofloxacin]
[4]
  ciprofloxacin concentration above which the surviving subpopulation plateaus: above 50 μg/ml
[5]; additional 6 hours of 200 μg/ml ciprofloxacin treatment
  change of final population of persister cells: did not change
[5]; biofilms treated with 200 μg/ml ciprofloxacin for 3.5 hours
  share of total biofilm cells belonging to the persister population: about 0.31%

## NC[C@H]1O[C@H](O[C@H]2[C@H](O)[C@@H](O[C@H]3O[C@H](CO)[C@@H](O)[C@H](N)[C@H]3O)[C@H](N)C[C@@H]2N)[C@H](N)C[C@@H]1O [tobramycin]
[6]
  reduction in viable cells: 1.2±0.16 log
[7]
  tobramycin typically required for P. aeruginosa PAO1 biofilm treatment: > 500 × of MIC

## catalase
[1]; catalase itself (0.05 mg/ml)
  effect on biofilm: no significant effect
